In US5747488A, “2-aryl-5,11-dihydro-6H-dipyrido[3,2-B:2',3'-E][1, 4]diazepines and their use in the treatment of HIV infection” (Boehringer Ingelheim Pharmaceuticals, Inc., priority 1996, dated 1998):

Tests used:
[1] = molecular target: T1, HIV-1 reverse transcriptase, wild type (WT) (Human immunodeficiency virus type 1 (BRU ISOLATE), UniProt P03367); assay: Reverse transcriptase (RT) assay, wild type enzyme (RNA-dependent DNA polymerase activity); type: biochemical, Human Immunodeficiency Virus (HIV-1), LAV strain; details: read-out: RT (WT) Assay % inh. (1 μM)
T1 construct: recombinant clone pBRTprtl+ (vector pIBI21, lac promoter) in E. coli JM109
Excerpt: Utilizing the Reverse Transcriptase (RT) Assay described below, compounds can be tested for their ability to inhibit the RNA-dependent DNA polymerase activity of HIV-1 RT. Certain specific compounds described in the Examples which appear below, were so tested.
Among the enzymes for which Human Immunodeficiency Virus (HIV-1) encodes is a reverse transcriptase (1), so-named because it transcribes a DNA copy from an RNA template. This activity can be quantitatively measured in a cell-free enzyme assay, which has been previously described (2), and is based upon the observation that reverse transcriptase is able to use a synthetic template [poly r(C) primed with oligo d(G)] to transcribe a radio-labelled, acid-precipitable DNA strand utilizing ^3 H-dGTP as a substrate. The assay described below utilizes the wild type (WT) enzyme, which is the predominant form of the enzyme observed in patients infected with HIV-1. Utilization of the mutant RT enzyme (Y181C, prepared by site-directed mutagenesis in which the tyrosine residue at codon 181 has been replaced by a cysteine residue) and analogous assay conditions allows compounds to be evaluated for their effectiveness at inhibiting this mutant enzyme. […]

[2] = MTT assay (cytotoxicity); type: cell-based; details: human; H9 cells, five days
Protocol: In order to roughly assess the cytotoxicity of the compounds provided by the invention, several such compounds were tested in the MTT Assay described below. Compounds having a relatively high CC50 are preferred.
The MTT [3-(4,5-dimethylthiazol-2-yl)-2,5 diphenyl tetrazolium bromide) assay is based on cleavage of tetrazolium bromide by metabolically active cells, resulting in a highly quantitative blue color. This assay has been previously described (1) but has been optimized for the purposes of the testing reported herein.
The H9 cell line (2), an established human lymphoma suspension cell line grown in RPMI 1640 supplemented with 10% fetal bovine serum, is used as the target cell line in the assay. Cells (100 μL) are plated in microtest plate wells at a concentration of 10^5 cells per mL in the presence of varying concentrations of inhibitor. The cells are incubated at 37° C. in a humidified CO2 incubator. Five days later, 20 μL of MTT (5 mg/mL in RPMI 1640, sonicated, 0.2 micron filtered, and stored at 4° C.) is added to each well. After 4 hours additional incubation at 37° C., 60 μL of Triton-X is added to each well and thoroughly mixed to aid the solubilization of the crystals. Absolute ethanol (5 μL) is added to each well and the resulting mixture is incubated for 30 minutes at 60° C. and immediately read on a plate reader (Dynatech) at a wavelength of 570 nm. […]

Question: Which results are given for `CCN1c2ncccc2-c2ncc(C)n2-c2ccc(-c3cn[nH]c3)nc21` [Example 1, 8-Ethyl-1-methyl-10-(4-pyrazolyl)imidazo[2',3':6,5]dipyrido[3,2-b:2',3'-e][1,4]diazepine]?
Answer: inhibition at 1 µM [1]: 95%; CC50 at 120 h [2]: > 100 µM
